Measurements: US12076329B2, “Compositions and methods for enhancing visual function” (The Regents of the University of California, priority 2020, dated 2024)
“Also recorded” adds a separate entry of the source.

What was measured:
[1] = system: rd1 mice expressing SNAP-mGluR2 in ON-BCs; experiment: 2-chamber light/dark light aversion test, SNAP-mGluR2 in ON-BCs; format: in vivo, mouse; details: in PBS intravitreal
Procedure: Mouse experiments were conducted under the express approval of the University of California Animal Care and Use Committee, wt mice (C57BL/6J) and rd1 mice (C3H) were purchased from the Jackson Laboratory and housed on a 12-h light/dark cycle with food and water ad libitum. cDNA encoding SNAP-mGluR2 was inserted in an established viral cassette under control of either the human synapsin promoter (hsyn-1) for expression in RGCs or a 4-copy concatemer of the mouse grm6 minimal promoter (4×grm6) for expression in ON-BCs and packaged in the AAV 2/2-4YF capsid. The vector, containing 10^10-10^12 viral genomes was delivered in a 2 µl volume to the vitreous of the rd1 mouse eye via microinjection. rAAV injections were at p30-p60 and in vivo and in vitro experiments at p90-p160. AAVs were produced as previously described.
The 2-chamber light-dark passive avoidance test was performed. White light (wavelength range) at ˜100 μW cm^2 or either blue light (460/45 nm) or green light (535/50 nm) at 0.5-25 μW cm^2 was mounted above the chamber with homogeneously distributed light.
Animal movements were tracked using IR sensors on the shuttle box. Time spent in the light and dark chambers was measured and analyzed using Graphic State and Graphic State RT (Coulbourn Instruments).
Whether ^4×BGAG12,460:SNAP-mGluR2 would also restore light perception in ON-BCs was tested. […]

[2] = system: rd1 mice expressing SNAP-mGluR2 in RGCs; experiment: Line pattern recognition (learned aversive association, iPad displays), SNAP-mGluR2 in RGCs; format: in vivo, mouse; details: for line pattern recognition in moving displays (lines 1 or 6 cm apart): displays moving at 4 or 8 cm/s; for high-acuity line pattern recognition, 0.5 cm wide lines separated by 0.25 or 0.5 cm: in PBS intravitreal
Procedure: Modified active avoidance was assayed as previously described^19, using the Coulbourn shuttle box (H10-11M-SC), however, now iPad tablet screens were mounted onto the shuttle cage wall, each displaying one of two images that differed in orientation or distance between two lines but were otherwise of equal shape, size, and light intensity. The aversive image side was paired with a foot shock of 0.7 mA. Upon recall the light patterns were reversed to avoid a bias for location and time spent on each side was recorded. Adaptation was tested by dimming or brightening the display to different intensities.
As shown above, ^4×BGAG12,460:SNAP-mGluR2 in either RGCs or ON-BCs confers high sensitivity light perception. It was asked whether ^4×BGAG12,460:SNAP-mGluR2 would support patterned vision. The ability of treated and untreated rd1 mice to discriminate between two different line patterns in a learned negative association task was tested. The task is carried out in a 2-chamber arena, where the floor in each chamber is conductive and can apply an independent aversive mild foot shock. […] The mouse was trained for two days, during which a mild foot shock was given in one of the chambers. The line pattern associated with the foot shock was assigned randomly initially but then kept consistent for that animal throughout the 2 days of training. […] The chambers were cleaned thoroughly before and after each training or test session to remove olfactory clues. The room was kept dark to avoid room reference visual cues. And the aversive and non-aversive cues were switched between the end of the second day of training and the test day to avoid location bias.
To further assess the restored line pattern recognition, the lines were made thinner and the separation between the lines was reduced.
The kinetics of onset, decay and recovery of the restored light response are expected to affect the ability to recognize a visual pattern. […] Thus, the speed limit of ^4×BGAG12,460:SNAP-mGluR2 in RGCs is ≥8 cm/s, whereas that of medium wave cone opsin in RGCs is ≤4 cm/s.

[3] = target: T1, SNAP-mGluR2 (Rattus norvegicus, UniProt P31421); experiment: Photoactivation of SNAP-mGluR2 read out as GIRK current, whole cell patch clamp in HEK293 cells; format: cell-based
T1 construct: expressed in transfected cells; host or cells: HEK293 / HEK 293T, with co-expressed GIRK channel
T1 sequence (P31421 with tags, fused parts or gaps): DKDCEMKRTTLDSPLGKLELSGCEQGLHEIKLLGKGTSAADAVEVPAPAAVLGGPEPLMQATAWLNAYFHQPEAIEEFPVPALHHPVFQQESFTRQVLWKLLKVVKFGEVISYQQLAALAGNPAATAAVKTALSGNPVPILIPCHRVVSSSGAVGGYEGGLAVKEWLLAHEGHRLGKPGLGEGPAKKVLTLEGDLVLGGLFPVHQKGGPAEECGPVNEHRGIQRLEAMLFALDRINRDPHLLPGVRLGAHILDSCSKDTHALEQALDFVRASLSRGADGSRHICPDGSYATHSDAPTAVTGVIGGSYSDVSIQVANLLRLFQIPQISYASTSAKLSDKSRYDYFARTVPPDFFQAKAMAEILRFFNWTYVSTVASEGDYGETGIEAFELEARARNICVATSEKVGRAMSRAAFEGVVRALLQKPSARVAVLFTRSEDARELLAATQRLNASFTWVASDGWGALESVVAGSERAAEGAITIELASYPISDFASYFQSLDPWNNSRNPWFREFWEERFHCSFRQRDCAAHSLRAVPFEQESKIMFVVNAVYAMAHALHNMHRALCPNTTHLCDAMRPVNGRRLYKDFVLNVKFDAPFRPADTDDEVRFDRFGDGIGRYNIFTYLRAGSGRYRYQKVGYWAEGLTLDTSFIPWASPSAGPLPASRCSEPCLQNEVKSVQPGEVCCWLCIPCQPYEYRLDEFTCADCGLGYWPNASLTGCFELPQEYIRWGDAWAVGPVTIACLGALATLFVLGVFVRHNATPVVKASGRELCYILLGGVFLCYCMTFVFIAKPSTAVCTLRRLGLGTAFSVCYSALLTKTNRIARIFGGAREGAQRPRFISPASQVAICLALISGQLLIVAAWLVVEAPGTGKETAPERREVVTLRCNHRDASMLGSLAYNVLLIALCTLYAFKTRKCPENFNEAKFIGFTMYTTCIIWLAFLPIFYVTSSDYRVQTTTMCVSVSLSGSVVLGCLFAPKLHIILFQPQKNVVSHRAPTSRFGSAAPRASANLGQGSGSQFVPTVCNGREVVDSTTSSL
Procedure: Whole cell patch clamp recordings from HEK 293T cells were performed 24-48 hours after transfection as previously described (Farrants et al., 2018). Briefly, voltage clamp recordings at −60 mV were performed in a high potassium (120 mM) solution to enable large inward currents upon receptor activation.
Unless otherwise noted, cells were incubated with 1-10 μM of PORTL for 45-60 min at 37° C. in the appropriate extracellular recording solution. Labeling efficiency was determined as previously described (Levitz et al., 2017). Illumination was applied to the entire field of view using a CoolLED pE-4000 through a 40× objective. Light intensity in the sample plane was 1-2 mW/mm^2. pClamp software was used for both data acquisition and control of illumination. All drugs were purchased from Tocris and applied using a gravity-driven perfusion system.
FIG. 3A-3C. Monovalent BGAG12,460 elicits rat SNAP-mGluR2 and human SNAP-mGluR6 GIRK photo-current in HEK293 cells. FIG. 3A. Group II and III mGluRs, like mGluR2 and 6, respectively, couple to GIRK channels in neurons and this system reconstitutes in non-neuronal cell lines, so that SNAP-mGluR2 or 6 coupled to a BGAG photoswitch will be activated by light and induce hyperpolarizing GIRK current. FIG. 3B. Blue (460 nm) light photo-activates BGAG12,460:SNAP-mGluR2 and elicits an inward K+ current from co-expressed GIRK channel in a HEK293 cell voltage clamped at −60 mV with [K+]in=[K+]out=150 mM. FIG. 3C.
FIG. 4A-4D. Multibranched BGAG12,460 increases potency and sensitivity of SNAP-mGluR2 activation of GIRK channels in HEK293 cells. FIG. 4A. ^4×BGAG12,460 consists of a single BG end for 1:1 attachment to SNAP on each subunit of the mGluR and 4 branches of a 12-PEG linker, with each branch bearing a photoswitchable azobenzene-glutamate (AG). FIG. 4B. […] Dependence of SNAP-mGluR2 photo-activation efficiency, read out as GIRK current, with single, 2-branch and 4-branch BGAG12,460. […]

SMILES: Nc1nc(OCc2ccc(CNC(=O)CCCC(=O)N[C@H](CCC(=O)N[C@H](CCC(=O)NCCOCCOCCOCCOCCOCCOCCOCCOCCOCCOCCOCCOCCC(=O)NCCNc3ccc(/N=N/c4ccc(NC(=O)CCC[C@@H](C[C@H](N)C(=O)O)C(=O)O)cc4)cc3)C(=O)NCCOCCOCCOCCOCCOCCOCCOCCOCCOCCOCCOCCOCCC(=O)NCCNc3ccc(/N=N/c4ccc(NC(=O)CCC[C@@H](C[C@H](N)C(=O)O)C(=O)O)cc4)cc3)C(=O)N[C@H](CCC(=O)NCCOCCOCCOCCOCCOCCOCCOCCOCCOCCOCCOCCOCCC(=O)NCCNc3ccc(/N=N/c4ccc(NC(=O)CCC[C@@H](C[C@H](N)C(=O)O)C(=O)O)cc4)cc3)C(=O)NCCOCCOCCOCCOCCOCCOCCOCCOCCOCCOCCOCCOCCC(=O)NCCNc3ccc(/N=N/c4ccc(NC(=O)CCC[C@@H](C[C@H](N)C(=O)O)C(=O)O)cc4)cc3)cc2)c2nc[nH]c2n1 [^4×BGAG12,460]
- week post-injection by which dark preference disappeared [1]: ≤ 3 week
- light aversion (time in dark chamber) ([1]; first week after injection): spent more time in the dark chamber
- speed limit of line pattern recognition in moving displays [2]: ≥ 8 cm/s
- line pattern recognition in moving displays (lines 1 or 6 cm apart) [2]: performed as well as wildtype animals when the line displays moved at either 4 or 8 cm/s
- line pattern recognition in moving displays (lines 1 or 6 cm apart) ([2]; listed as 4×BGAG): supports line pattern recognition as well as wildtype vision when visual displays move at 8 cm/s
- high-acuity line pattern recognition, 0.5 cm wide lines separated by 0.25 or 0.5 cm [2]: enabled the rd1 mice to perform the task and to do so as well as wildtype mice
- high-acuity line pattern recognition, 0.5 cm wide lines separated by 0.25 or 0.5 cm ([2]; listed as 4×BGAG): supports line pattern recognition approaching wild-type acuity limit
- line pattern recognition, parallel lines spaced 1 versus 6 cm ([2]; in PBS, trained and tested within a week after intravitreal injection): spent more time on the side of the non-aversive visual display
- visible light photoactivation of SNAP-mGluR2 ([3]; 460 nm light, GIRK current, HEK293 cells): near-complete photoactivation of mGluR2; also recorded: close to the maximum activation that is achieved with saturating glutamate
- increase in sensitivity (shift of mid-point of the intensity-response curve) ([3]; cultured HEK293 cells, versus BGAG12,460): ~5 fold
